Results on eleven molecules are retold here after ChEMBL document CHEMBL1149328, “Estrogen receptor ligands. II. Discovery of benzoxathiins as potent, selective estrogen receptor alpha modulators” (J Med Chem, 2004).

In experiment [1] the target is T1, Estrogen receptor beta (Homo sapiens, UniProt Q92731).
Description: Binding affinity towards human recombinant Estrogen receptor beta was determined
Experiment [2] concerns the target T2, Estrogen receptor (Homo sapiens, UniProt P03372).
T2 sequence (P03372 whole entry): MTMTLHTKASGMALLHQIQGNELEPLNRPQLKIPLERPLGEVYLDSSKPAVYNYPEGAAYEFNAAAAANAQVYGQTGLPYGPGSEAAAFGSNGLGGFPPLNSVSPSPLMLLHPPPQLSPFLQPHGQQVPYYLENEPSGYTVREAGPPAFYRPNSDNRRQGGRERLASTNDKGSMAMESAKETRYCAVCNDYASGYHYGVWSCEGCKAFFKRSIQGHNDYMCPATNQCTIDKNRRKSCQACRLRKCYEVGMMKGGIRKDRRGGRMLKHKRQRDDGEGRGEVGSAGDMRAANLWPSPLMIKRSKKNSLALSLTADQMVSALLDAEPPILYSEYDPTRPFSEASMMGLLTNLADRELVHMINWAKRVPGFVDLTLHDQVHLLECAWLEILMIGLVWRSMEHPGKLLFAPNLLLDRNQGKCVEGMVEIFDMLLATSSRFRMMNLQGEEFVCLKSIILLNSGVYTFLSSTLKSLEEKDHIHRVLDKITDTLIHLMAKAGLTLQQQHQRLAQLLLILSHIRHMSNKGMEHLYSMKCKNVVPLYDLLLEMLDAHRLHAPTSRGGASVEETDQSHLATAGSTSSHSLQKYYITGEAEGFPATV
Description: Binding affinity towards human recombinant Estrogen receptor alpha was determined

Experiment [3] addresses T3, Estrogen receptor (Rattus norvegicus) (UniProt P06211+Q62986). The note with it: at 1 mg/kg.
Description: (§1) Anti-uterotrophic activity in rats after 1 mg/kg subcutaneous dose for 3 days with estradiol
The target in experiment [4] is T3, Estrogen receptor (Rattus norvegicus). The note with it: at 1 mg/kg. The source holds these as a separate data set.
Description: Anti-uterotrophic activity in rats after 1 mg/kg subcutaneous dose for 3 days without estradiol
For experiment [5], the target named is T2, Estrogen receptor. In words: In vitro binding affinity for Estrogen receptor alpha in HEK293 cells. The class given is cell-based.
Experiment [6] concerns the target T1, Estrogen receptor beta. The experiment can be described thus: biochemical.
Description: In vitro binding affinity for Estrogen receptor beta in HEK293 cells
The target in experiment [7] is T3, Estrogen receptor (Rattus norvegicus). The note with it: at 1 mg/kg. This is another data set of the same source.
Description: as §1
The target is the same in experiment [8]. The note with it: Uterus, at 1 mg/kg.
Description: Uterotrophic activity in rats after 1 mg/kg peroral dose for 3 days without estradiol
For experiment [9] the target is unchanged. The note with it: Uterus, at 0.3 mg/kg.
Description: Uterotrophic activity in rats after 0.3 mg/kg peroral dose for 3 days with estradiol

T1 sequence (Q92731 whole entry): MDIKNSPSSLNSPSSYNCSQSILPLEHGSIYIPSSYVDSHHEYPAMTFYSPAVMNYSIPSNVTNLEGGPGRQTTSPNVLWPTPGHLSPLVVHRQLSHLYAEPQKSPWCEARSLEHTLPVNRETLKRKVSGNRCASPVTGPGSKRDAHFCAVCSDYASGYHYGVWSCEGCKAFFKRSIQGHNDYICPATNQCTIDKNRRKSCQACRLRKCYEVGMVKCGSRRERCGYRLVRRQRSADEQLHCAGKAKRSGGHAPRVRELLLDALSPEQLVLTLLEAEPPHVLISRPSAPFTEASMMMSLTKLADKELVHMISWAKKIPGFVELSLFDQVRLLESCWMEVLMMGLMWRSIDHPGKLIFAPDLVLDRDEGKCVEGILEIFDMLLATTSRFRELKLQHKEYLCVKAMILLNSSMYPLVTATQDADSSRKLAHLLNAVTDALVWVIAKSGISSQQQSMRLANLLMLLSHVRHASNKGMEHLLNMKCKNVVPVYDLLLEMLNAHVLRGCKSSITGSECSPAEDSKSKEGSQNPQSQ

As to `Oc1ccc([C@@H]2Sc3ccc(O)cc3O[C@@H]2c2ccc(OCCN3CCCCC3)cc2)cc1`, the IC50 against Estrogen receptor beta [1] was 0.045 µM; at Estrogen receptor [2], 0.0016 µM.
Take `Oc1ccc(C2=C(c3ccc(OCCN4CCCCC4)cc3)Oc3ccc(O)cc3S2)cc1`: the IC50 on Estrogen receptor beta [1] stood at 0.0051 µM; at Estrogen receptor [5], 0.0051 µM; against Estrogen receptor [2], 0.0016 µM; at Estrogen receptor beta [6] it was 0.159 µM. This molecule registered an inhibition in experiment [3] of 55%. Further, the Control in experiment [4] came out at 45%.
Consider `Oc1ccc([C@@H]2Sc3cc(O)ccc3O[C@H]2c2ccc(OCCN3CCCCC3)cc2)cc1` (racemic), for which, in experiment [3], the inhibition was 77%. In experiment [4], the Control is 5%.
As to `Oc1ccc([C@@H]2Sc3ccccc3O[C@@H]2c2ccc(OCCN3CCCCC3)cc2)cc1`, the IC50 against Estrogen receptor beta [1] worked out at 0.07 µM; against Estrogen receptor [2], 0.01 µM.
In the same order, the values of `Oc1ccc2c(c1)S[C@@H](c1ccccc1)[C@@H](c1ccc(OCCN3CCCCC3)cc1)O2` are 0.183 µM and 0.0062 µM.
In the same order, the values of `O=C1c2ccc(O)cc2O[C@H](c2ccc(OCCN3CCCCC3)cc2)[C@@H]1c1ccc(O)cc1` are 2.73 µM and 0.039 µM.
The matching figures for `O=S1(=O)c2cc(O)ccc2O[C@H](c2ccc(OCCN3CCCCC3)cc2)[C@@H]1c1ccc(O)cc1`: 5.95 µM and 1.09 µM.
On to `Oc1ccc([C@@H]2Sc3cc(O)ccc3O[C@@H]2c2ccc(OCCN3CCCCC3)cc2)cc1` (stereo in doubt; 4-L), for which, in experiment [3], the inhibition is 16%.
For `Oc1ccc([C@H]2Sc3cc(O)ccc3O[C@H]2c2ccc(OCCN3CCCCC3)cc2)cc1`, the inhibition was found to be 0.4% in experiment [7] and 11.4% in [9]. In addition, the Control in experiment [8] was 9%.
For `[O-][S+]1c2cc(O)ccc2O[C@H](c2ccc(OCCN3CCCCC3)cc2)[C@@H]1c1ccc(O)cc1` (stereo partly specified), the IC50 against Estrogen receptor beta [1] and against Estrogen receptor [2] was above 100 µM each time.
On to `Oc1ccc([C@@H]2Sc3cc(O)ccc3O[C@@H]2c2ccc(OCCN3CCCCC3)cc2)cc1` (racemic), for which, in [3], the inhibition was determined as 18%. Besides, in experiment [4], the Control was found to be 20%.
